Data reported in patent publication US10112937B2, “P2X7 modulators and methods of use” (Janssen Pharmaceutica NV, priority 2013, dated 2018).

Assays:
Format in all cases: cell-based
human P2X7 [1] = molecular target: T1, human P2X7 (Homo sapiens (Human), UniProt Q99572); test: P2X7 antagonism in human PBMCs (IL-1β release after LPS + Bz-ATP, ELISA); conditions: human PBMCs; for PBMC 1 μM (% control): test compound 1 μM
human P2X7 [2] = molecular target: T1, human P2X7; test: Ca2+ flux (FLIPR) in 1321N1 cells expressing recombinant human P2X7; conditions: 1321N1 cells, recombinant human P2X7, 250 μM BzATP;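 also: cells loaded with Calcium-4 dye, preincubated with test compound for 30 min, fluorescence change read 180 s after agonist addition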
Procedure: (§1) P2X7 Antagonism in Recombinant Human P2X7 Cells or Recombinant Rat P2X7 Cells: (a) Ca^2+ Flux and (b) Radioligand Binding
(§2) 1321N1 cells expressing the recombinant human or rat P2X7 channel was cultured in HyQ DME/(HyClone/Dulbecco's Modified Eagle Medium) high glucose supplemented with 10% Fetal Bovine Serum (FBS) and appropriate selection marker. Cells were seeded at a density of 25000 cells/well (96-well clear bottom black walled plates) in 100 μl volume/well. On the day of the experiment, cell plates were washed with assay buffer, containing (in mM): 130 NaCl, 2 KCl, 1 CaCl2, 1 MgCl2, 10 HEPES, 5 glucose; pH 7.40 and 300 mOs. After the wash, cells were loaded with the Calcium-4 dye (Molecular Device) and incubated in the dark for 60 minutes. Test compounds were prepared at 250× the test concentration in neat DMSO. Intermediate 96-well compound plates were prepared by transferring 1.2 μL of the compound into 300 μL of assay buffer. A further 3× dilution occurred when transferring 50 μL/well of the compound plate to 100 μL/well in the cell plate. Cells were incubated with test compounds and dye for 30 minutes. […] The fluorescence change was measured 180 seconds after adding the agonist.

rat P2X7 = rat P2X7 (Rattus norvegicus (Rat), UniProt Q64663); test: Ca2+ flux (FLIPR) in 1321N1 cells expressing recombinant rat P2X7;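 also: Calcium-4 dye fluorescence change read 180 s after agonist addition, with cells preincubated 30 min with compound and dye in 96-well plates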
Procedure: as §1, §2

[3] = 1321N1 cells, recombinant rat P2X7, 250 μM BzATP

T1 sequence (Q99572 whole entry): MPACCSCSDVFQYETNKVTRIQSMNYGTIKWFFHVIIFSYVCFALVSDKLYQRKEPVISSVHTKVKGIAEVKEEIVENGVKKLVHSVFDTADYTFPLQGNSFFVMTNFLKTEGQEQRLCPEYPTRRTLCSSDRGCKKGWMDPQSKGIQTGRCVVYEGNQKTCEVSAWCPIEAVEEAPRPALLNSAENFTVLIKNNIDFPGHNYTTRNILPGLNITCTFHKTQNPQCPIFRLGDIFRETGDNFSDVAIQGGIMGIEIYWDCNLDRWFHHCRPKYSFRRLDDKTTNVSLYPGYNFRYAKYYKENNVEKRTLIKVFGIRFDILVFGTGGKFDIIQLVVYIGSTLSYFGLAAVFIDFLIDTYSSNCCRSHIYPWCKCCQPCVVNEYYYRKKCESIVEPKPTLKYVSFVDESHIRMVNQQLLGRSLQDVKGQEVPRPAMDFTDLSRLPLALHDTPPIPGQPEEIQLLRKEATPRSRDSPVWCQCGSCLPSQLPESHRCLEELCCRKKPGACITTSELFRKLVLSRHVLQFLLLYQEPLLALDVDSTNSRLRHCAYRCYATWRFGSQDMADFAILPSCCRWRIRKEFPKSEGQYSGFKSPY
rat P2X7, sequence (Q64663 whole entry): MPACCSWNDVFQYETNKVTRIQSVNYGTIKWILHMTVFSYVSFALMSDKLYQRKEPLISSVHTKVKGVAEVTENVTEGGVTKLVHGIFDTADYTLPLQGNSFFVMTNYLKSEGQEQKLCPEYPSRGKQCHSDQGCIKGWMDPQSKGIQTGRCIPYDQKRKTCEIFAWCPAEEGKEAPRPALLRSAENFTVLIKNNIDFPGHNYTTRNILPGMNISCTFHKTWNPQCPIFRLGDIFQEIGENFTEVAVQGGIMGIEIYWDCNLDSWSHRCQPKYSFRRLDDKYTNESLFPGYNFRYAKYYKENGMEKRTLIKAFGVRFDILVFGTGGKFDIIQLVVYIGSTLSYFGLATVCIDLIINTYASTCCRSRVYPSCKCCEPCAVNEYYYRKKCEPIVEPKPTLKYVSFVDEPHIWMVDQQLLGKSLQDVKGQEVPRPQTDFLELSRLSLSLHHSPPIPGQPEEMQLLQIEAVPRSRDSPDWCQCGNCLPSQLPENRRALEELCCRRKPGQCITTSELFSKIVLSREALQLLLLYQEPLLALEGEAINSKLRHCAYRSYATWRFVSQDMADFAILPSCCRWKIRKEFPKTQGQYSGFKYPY

| Compound | PBMC 10 μM (% control) (human P2X7 [1]; test compound 10 μM) | IC50 (human P2X7 [2]) [nM] | IC50 (rat P2X7; [3]) [nM] | further results |
| --- | --- | --- | --- | --- |
| O=C(c1cccc(C(F)(F)F)c1Cl)N1CCc2c(ncn2-c2ccccn2)C1 [Example 1, (2-Chloro-3-(trifluoromethyl)phenyl)(1-(pyridin-2-yl)-6,7-dihydro-1H-imidazo[4,5-c]pyridin-5(4H)-yl)methanone] | – | 4.1 | – | – |
| CCC1c2ncn(-c3cnccn3)c2CCN1C(=O)c1cccc(C(F)(F)F)c1Cl (stereo not drawn) [Example 15, (2-Chloro-3-(trifluoromethyl)phenyl)(4-ethyl-1-(pyrazin-2-yl)-6,7-dihydro-1H-imidazo[4,5-c]pyridin-5(4H)-yl)methanone] | – | 81.4 | – | PBMC 1 μM (% control) (human P2X7 [1]): 9.1 % control |
| CC1c2ncn(-c3ncccc3F)c2CCN1C(=O)c1cccc(C(F)(F)F)c1Cl (stereo not drawn) [Example 21, (2-Chloro-3-(trifluoromethyl)phenyl)(1-(3-fluoropyridin-2-yl)-4-methyl-6,7-dihydro-1H-imidazo[4,5-c]pyridin-5(4H)-yl)methanone] | 1.6 | 90 | – | – |
| CC1c2ncn(-c3ncccn3)c2CCN1C(=O)c1cccc(C(F)(F)F)c1Cl (stereo not drawn) [Example 23, (2-Chloro-3-(trifluoromethyl)phenyl)(4-methyl-1-(pyrimidin-2-yl)-6,7-dihydro-1H-imidazo[4,5-c]pyridin-5(4H)-yl)methanone] | 6.4 | – | 113 | – |
| CCOC(=O)C1c2ncn(-c3ccccn3)c2CCN1C(=O)c1cccc(Cl)c1Cl (stereo not drawn) [Example 25, Ethyl 5-(2,3-dichlorobenzoyl)-1-(pyridin-2-yl)-4,5,6,7-tetrahydro-1H-imidazo[4,5-c]pyridine-4-carboxylate] | – | 142 | – | PBMC 1 μM (% control) (human P2X7 [1]): 9.7 % control |
| O=C(c1cccc(C(F)(F)F)c1Cl)N1CCc2c(ncn2-c2ccccn2)C1CF (stereo not drawn) [Example 32, (2-Chloro-3-(trifluoromethyl)phenyl)(4-(fluoromethyl)-1-(pyridin-2-yl)-6,7-dihydro-1H-imidazo[4,5-c]pyridin-5(4H)-yl)methanone] | 1.9 | – | 47.5 | – |
| O=C(OCC1c2ncn(-c3ccccc3)c2CCN1C(=O)c1cccc(C(F)(F)F)c1Cl)c1cccc(C(F)(F)F)c1Cl (stereo not drawn) [Example 36, (5-{[2-Chloro-3-(trifluoromethyl)phenyl]carbonyl}-1-phenyl-4,5,6,7-tetrahydro-1H-imidazo[4,5-c]pyridin-4-yl)methyl 2-chloro-3-(trifluoromethyl)benzoate] | – | 3390 | – | – |
| CC1(C)c2ncn(-c3ccccc3)c2CCN1C(=O)c1cccc(C(F)(F)F)c1Cl [Example 53, 5-{[2-Chloro-3-(trifluoromethyl)phenyl]carbonyl}-4,4-dimethyl-1-phenyl-4,5,6,7-tetrahydro-1H-imidazo[4,5-c]pyridine] | – | – | 3150 | PBMC 1 μM (% control) (human P2X7 [1]): 99.0 % control |
| O=C(c1cccc(C(F)(F)F)c1Cl)N1CCc2c(nnn2-c2ncc(F)cn2)C1 [Example 64, 5-{[2-Chloro-3-(trifluoromethyl)phenyl]carbonyl}-1-(5-fluoropyrimidin-2-yl)-4,5,6,7-tetrahydro-1H-[1,2,3]triazolo[4,5-c]pyridine] | −9.2 | 22.8 | – | – |
| CC1c2ncn(-c3ccc(F)cn3)c2CCN1C(=O)c1ccc(F)cc1Cl (stereo not drawn) [Example 256, (2-chloro-4-fluorophenyl)(1-(5-fluoropyridin-2-yl)-4-methyl-6,7-dihydro-1H-imidazo[4,5-c]pyridin-5(4H)-yl)methanone] | 7.1 | 4370 | – | – |
| CC1c2ncn(-c3ccc(F)cn3)c2CCN1C(=O)c1ccc(F)c(Cl)c1Cl (stereo not drawn) [Example 261, (2,3-dichloro-4-fluorophenyl)(1-(5-fluoropyridin-2-yl)-4-methyl-6,7-dihydro-1H-imidazo[4,5-c]pyridin-5(4H)-yl)methanone] | −3.1 | 29.3 | – | – |
| CC1c2ncn(-c3ccc(F)cn3)c2CCN1C(=O)c1cccc(C(F)(F)F)c1F (stereo not drawn) [Example 262, (2-fluoro-3-(trifluoromethyl)phenyl)(1-(5-fluoropyridin-2-yl)-4-methyl-6,7-dihydro-1H-imidazo[4,5-c]pyridin-5(4H)-yl)methanone] | −3.6 | – | 3470 | – |
| Cc1c(C(=O)N2CCc3c(ncn3-c3ccc(F)cn3)C2C)cccc1C(F)(F)F (stereo not drawn) [Example 263, (1-(5-fluoropyridin-2-yl)-4-methyl-6,7-dihydro-1H-imidazo[4,5-c]pyridin-5(4H)-yl)(2-methyl-3-(trifluoromethyl)phenyl)methanone] | −1.6 | 17.5 | – | – |
| Cc1c(C(=O)N2CCc3c(ncn3-c3ccc(F)cn3)C2)cccc1C(F)(F)F [Example 312, (1-(5-fluoropyridin-2-yl)-6,7-dihydro-1H-imidazo[4,5-c]pyridin-5(4H)-yl)(2-methyl-3-(trifluoromethyl)phenyl)methanone] | 9.5 | 114 | – | – |
| CC1c2n[nH]c(-c3cnccn3)c2CCN1C(=O)c1cccc(C(F)(F)F)c1Cl (stereo not drawn) [Example 438, (2-chloro-3-(trifluoromethyl)phenyl)(7-methyl-3-(pyrazin-2-yl)-4,5-dihydro-2H-pyrazolo[3,4-c]pyridin-6(7H)-yl)methanone] | – | – | – | PBMC 10 μM (% control) (human P2X7 [1]; 10 μM test compound, LPS + Bz-ATP): −10.8 % control; IC50 (rat P2X7; Ca2+ flux, 250 μM BzATP, rat P2X7 1321N1 cells): 482 nM |

The next lines start with results.

| PBMC 10 μM (% control) (human P2X7 [1]; test compound 10 μM) | IC50 (human P2X7 [2]) [nM] | IC50 (rat P2X7; [3]) [nM] | Compound | further results |
| --- | --- | --- | --- | --- |
| 8.1 | 5510 | – | Cc1ccnc(-n2nnc3c2CCN(C(=O)c2cccc(OC(F)(F)F)c2)C3C)c1 (single isomer, unassigned) [Example 377, (S*)-(4-methyl-1-(4-methylpyridin-2-yl)-6,7-dihydro-1H-[1,2,3]triazolo[4,5-c]pyridin-5(4H)-yl)(3-(trifluoromethoxy)phenyl)methanone] | – |
| −2.7 | – | 56.6 | Cc1cc(-n2nnc3c2CCN(C(=O)c2cccc(C(F)(F)F)c2Cl)[C@@H]3C)ncc1F (single isomer, unassigned) [Example 382, (R*)-(2-chloro-3-(trifluoromethyl)phenyl)(1-(5-fluoro-4-methylpyridin-2-yl)-4-methyl-6,7-dihydro-1H-[1,2,3]triazolo[4,5-c]pyridin-5(4H)-yl)methanone] | – |
| 8.4 | – | 161 | Cc1cccc(-n2nnc3c2CCN(C(=O)c2cccc(C(F)(F)F)c2F)[C@H]3C)n1 (single isomer, unassigned) [Example 387, (S*)-(2-fluoro-3-(trifluoromethyl)phenyl)(4-methyl-1-(6-methylpyridin-2-yl)-6,7-dihydro-1H-[1,2,3]triazolo[4,5-c]pyridin-5(4H)-yl)methanone] | – |
| −5.4 | 880 | – | O=C(c1ccc(Cl)cc1Cl)N1CCc2c(ncn2-c2ccc(F)cn2)C1 [Example 313, (2,4-dichlorophenyl)(1-(5-fluoropyridin-2-yl)-6,7-dihydro-1H-imidazo[4,5-c]pyridin-5(4H)-yl)methanone] | – |
| – | 3540 | – | O=C(c1cccc(C(F)(F)F)c1F)N1CCc2c(ncn2-c2ccc(F)cn2)C1 [Example 314, (2-fluoro-3-(trifluoromethyl)phenyl)(1-(5-fluoropyridin-2-yl)-6,7-dihydro-1H-imidazo[4,5-c]pyridin-5(4H)-yl)methanone] | – |
| −2.0 | – | 394 | Cc1ccnc(-n2nnc3c2CCN(C(=O)c2ccnc(C(F)(F)F)c2F)C3C)c1 (stereo not drawn) [Example 355, (3-fluoro-2-(trifluoromethyl)pyridin-4-yl)(4-methyl-1-(4-methylpyridin-2-yl)-6,7-dihydro-1H-[1,2,3]triazolo[4,5-c]pyridin-5(4H)-yl)methanone] | – |
| 4.8 | – | 5790 | Cc1cc(-n2nnc3c2CCN(C(=O)c2ccc(Cl)c(C(F)(F)F)c2)C3C)ncc1F (stereo not drawn) [Example 364, (4-chloro-3-(trifluoromethyl)phenyl)(1-(5-fluoro-4-methylpyridin-2-yl)-4-methyl-6,7-dihydro-1H-[1,2,3]triazolo[4,5-c]pyridin-5(4H)-yl)methanone] | – |
| 63.3 | > 10000 | – | Cc1ccnc(-n2nnc3c2CCN(C(=O)c2cccc(OC(F)(F)F)c2)C3C)c1 (stereo not drawn) [Example 375, (4-methyl-1-(4-methylpyridin-2-yl)-6,7-dihydro-1H-[1,2,3]triazolo[4,5-c]pyridin-5(4H)-yl)(3-(trifluoromethoxy)phenyl)methanone] | – |
| 4.1 | – | 234 | Cc1cc(-n2nnc3c2CCN(C(=O)c2cccc(C(F)(F)F)c2Cl)C3C)ncc1F (stereo not drawn) [Example 381, (2-chloro-3-(trifluoromethyl)phenyl)(1-(5-fluoro-4-methylpyridin-2-yl)-4-methyl-6,7-dihydro-1H-[1,2,3]triazolo[4,5-c]pyridin-5(4H)-yl)methanone] | – |
| 12.4 | – | 57.8 | Cc1cccc(-n2nnc3c2CCN(C(=O)c2cccc(C(F)(F)F)c2F)C3C)n1 (stereo not drawn) [Example 385, (2-fluoro-3-(trifluoromethyl)phenyl)(4-methyl-1-(6-methylpyridin-2-yl)-6,7-dihydro-1H-[1,2,3]triazolo[4,5-c]pyridin-5(4H)-yl)methanone] | – |
| −18.8 | – | 2280 | Cc1ccnc(-n2nnc3c2CCN(C(=O)c2cccc(Cl)c2C)C3C)c1 (stereo not drawn) [Example 388, (3-chloro-2-methylphenyl)(4-methyl-1-(4-methylpyridin-2-yl)-6,7-dihydro-1H-[1,2,3]triazolo[4,5-c]pyridin-5(4H)-yl)methanone] | – |
| 0.3 | 879 | – | Cc1cc(-n2nnc3c2CCN(C(=O)c2cccc(C(F)(F)F)c2Cl)C3C)ncn1 (stereo not drawn) [Example 402, (2-chloro-3-(trifluoromethyl)phenyl)(4-methyl-1-(6-methylpyrimidin-4-yl)-6,7-dihydro-1H-[1,2,3]triazolo[4,5-c]pyridin-5(4H)-yl)methanone] | – |
